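Tested at 5 concentrations; 48 h exposure; 96-well plates; endpoints linearly interpolated, else capped at highest concentration. GI50: concentration for 50% inhibition of growth. At the TGI there is no net growth.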
Key:
Experiment in all cases: NCI tumour cell line growth inhibition, 48 h
786-0 renal = system: 786-0 renal
A498 renal = system: A498 renal
A549 NSCLC = system: A549 NSCLC
ACHN renal = system: ACHN renal
BT-549 breast = system: BT-549 breast
CAKI-1 renal = system: CAKI-1 renal
CCRF-CEM leukemia = system: CCRF-CEM leukemia
COLO 205 colon = system: COLO 205 colon
DU-145 prostate = system: DU-145 prostate
EKVX NSCLC = system: EKVX NSCLC
HCC-2998 colon = system: HCC-2998 colon
HCT-116 colon = system: HCT-116 colon
HCT-15 colon = system: HCT-15 colon
HL-60(TB) leukemia = system: HL-60(TB) leukemia
HOP-62 NSCLC = system: HOP-62 NSCLC
HOP-92 NSCLC = system: HOP-92 NSCLC
HS 578T breast = system: HS 578T breast
HT29 colon = system: HT29 colon
IGROV1 ovarian = system: IGROV1 ovarian
K-562 leukemia = system: K-562 leukemia
KM12 colon = system: KM12 colon
LOX IMVI melanoma = system: LOX IMVI melanoma
M14 melanoma = system: M14 melanoma
MALME-3M melanoma = system: MALME-3M melanoma
MCF7 breast = system: MCF7 breast
MDA-MB-231 breast = system: MDA-MB-231 breast
MDA-MB-435 = system: MDA-MB-435
MOLT-4 leukemia = system: MOLT-4 leukemia
NCI-H226 lung = system: NCI-H226 lung
NCI-H23 lung = system: NCI-H23 lung
NCI-H460 lung = system: NCI-H460 lung
NCI-H522 lung = system: NCI-H522 lung
NCI/ADR-RES ovarian = system: NCI/ADR-RES ovarian
OVCAR-3 ovarian = system: OVCAR-3 ovarian
OVCAR-4 ovarian = system: OVCAR-4 ovarian
OVCAR-5 ovarian = system: OVCAR-5 ovarian
OVCAR-8 ovarian = system: OVCAR-8 ovarian
PC-3 prostate = system: PC-3 prostate
RPMI-8226 leukemia = system: RPMI-8226 leukemia
RXF 393 renal = system: RXF 393 renal
SF-268 CNS = system: SF-268 CNS
SF-295 CNS = system: SF-295 CNS
SF-539 CNS = system: SF-539 CNS
SK-MEL-2 melanoma = system: SK-MEL-2 melanoma
SK-MEL-28 melanoma = system: SK-MEL-28 melanoma
SK-MEL-5 melanoma = system: SK-MEL-5 melanoma
SK-OV-3 ovarian = system: SK-OV-3 ovarian
SN12C renal = system: SN12C renal
SNB-19 CNS = system: SNB-19 CNS
SNB-75 CNS = system: SNB-75 CNS
SR leukemia = system: SR leukemia
SW-620 colon = system: SW-620 colon
T-47D breast = system: T-47D breast
TK-10 renal = system: TK-10 renal
U251 CNS = system: U251 CNS
UACC-257 melanoma = system: UACC-257 melanoma
UACC-62 melanoma = system: UACC-62 melanoma
UO-31 renal = system: UO-31 renal

`O=C1C=CC(=O)N1c1ccc2ccccc2c1` showed a GI50 (786-0 renal) of 17.2 µM, a TGI (786-0 renal) of 31.6 µM and a GI50 (A498 renal) of 12.7 µM. For the same molecule, the TGI (A498 renal) was 27.3 µM, the GI50 (A549 NSCLC) was 20.3 µM and the TGI (A549 NSCLC) was 43.2 µM. It also gave a GI50 (ACHN renal) of 4.66 µM, a TGI (ACHN renal) of 15.4 µM and a GI50 (BT-549 breast) of 14.3 µM. It also gave a TGI (BT-549 breast) of 27.8 µM, a GI50 (CAKI-1 renal) of 4.65 µM and a TGI (CAKI-1 renal) of 17.8 µM. The GI50 (CCRF-CEM leukemia) was 2.09 µM, the TGI (CCRF-CEM leukemia) was 7.94 µM and the GI50 (COLO 205 colon) was 2.01 µM. The TGI (COLO 205 colon) was 4.22 µM, the GI50 (DU-145 prostate) was 12.3 µM and the TGI (DU-145 prostate) was 25.6 µM. The GI50 (EKVX NSCLC) was 17.9 µM, the TGI (EKVX NSCLC) was 39.6 µM and the GI50 (HCC-2998 colon) was 17.8 µM. It also gave a TGI (HCC-2998 colon) of 32.8 µM, a GI50 (HCT-116 colon) of 3.93 µM and a TGI (HCT-116 colon) of 12.4 µM. The GI50 (HCT-15 colon) was 16.5 µM, the TGI (HCT-15 colon) was 33.1 µM and the GI50 (HL-60(TB) leukemia) was 7.74 µM. It also gave a TGI (HL-60(TB) leukemia) of 33.5 µM, a GI50 (HOP-62 NSCLC) of 16.2 µM and a TGI (HOP-62 NSCLC) of 31.1 µM. For the same molecule, the GI50 (HOP-92 NSCLC) was 7.59 µM, the TGI (HOP-92 NSCLC) was 22.2 µM and the GI50 (HS 578T breast) was 14.4 µM. It also gave a TGI (HS 578T breast) of 53.4 µM, a GI50 (HT29 colon) of 4.94 µM and a TGI (HT29 colon) of 27.8 µM. For the same molecule, the GI50 (IGROV1 ovarian) was 16.6 µM, the TGI (IGROV1 ovarian) was 52 µM and the GI50 (K-562 leukemia) was 3.45 µM. For the same molecule, the TGI (K-562 leukemia) was > 100 µM, the GI50 (KM12 colon) was 24.1 µM and the TGI (KM12 colon) was 71 µM. The GI50 (LOX IMVI melanoma) was 16.4 µM, the TGI (LOX IMVI melanoma) was 31.3 µM and the GI50 (M14 melanoma) was 14.5 µM. For the same molecule, the TGI (M14 melanoma) was 28.4 µM, the GI50 (MALME-3M melanoma) was 2.98 µM and the TGI (MALME-3M melanoma) was 8.19 µM. The GI50 (MCF7 breast) was 16.6 µM, the TGI (MCF7 breast) was 41.4 µM and the GI50 (MDA-MB-231 breast) was 16.1 µM. For the same molecule, the TGI (MDA-MB-231 breast) was 33 µM, the GI50 (MDA-MB-435) was 16.9 µM and the TGI (MDA-MB-435) was 32.2 µM. The GI50 (MOLT-4 leukemia) was 4.49 µM, the TGI (MOLT-4 leukemia) was 34.9 µM and the GI50 (NCI-H226 lung) was 16.8 µM. For the same molecule, the TGI (NCI-H226 lung) was 33.3 µM, the GI50 (NCI-H23 lung) was 17.1 µM and the TGI (NCI-H23 lung) was 37.2 µM. For the same molecule, the GI50 (NCI-H460 lung) was 17.5 µM, the TGI (NCI-H460 lung) was 37.9 µM and the GI50 (NCI-H522 lung) was 1.74 µM. The TGI (NCI-H522 lung) was 3.42 µM, the GI50 (NCI/ADR-RES ovarian) was 21.5 µM and the TGI (NCI/ADR-RES ovarian) was 55.7 µM. For the same molecule, the GI50 (OVCAR-3 ovarian) was 3.23 µM, the TGI (OVCAR-3 ovarian) was 8.75 µM and the GI50 (OVCAR-4 ovarian) was 8.92 µM. It also gave a TGI (OVCAR-4 ovarian) of 34.1 µM, a GI50 (OVCAR-5 ovarian) of 17.9 µM and a TGI (OVCAR-5 ovarian) of 34 µM. For the same molecule, the GI50 (OVCAR-8 ovarian) was 19.2 µM, the TGI (OVCAR-8 ovarian) was 42.3 µM and the GI50 (PC-3 prostate) was 18.1 µM. It also gave a TGI (PC-3 prostate) of 37.8 µM, a GI50 (RPMI-8226 leukemia) of 2 µM and a TGI (RPMI-8226 leukemia) of 4.97 µM. For the same molecule, the GI50 (RXF 393 renal) was 3.98 µM, the TGI (RXF 393 renal) was 12.9 µM and the GI50 (SF-268 CNS) was 14.5 µM. For the same molecule, the TGI (SF-268 CNS) was 28.3 µM, the GI50 (SF-295 CNS) was > 100 µM and the TGI (SF-295 CNS) was > 100 µM. The GI50 (SF-539 CNS) was 17.7 µM, the TGI (SF-539 CNS) was 33.9 µM and the GI50 (SK-MEL-2 melanoma) was 17.9 µM. It also gave a TGI (SK-MEL-2 melanoma) of 35.3 µM, a GI50 (SK-MEL-28 melanoma) of 16.8 µM and a TGI (SK-MEL-28 melanoma) of 34 µM. The GI50 (SK-MEL-5 melanoma) was 16.4 µM, the TGI (SK-MEL-5 melanoma) was 30.4 µM and the GI50 (SK-OV-3 ovarian) was 27.4 µM. The TGI (SK-OV-3 ovarian) was 78.5 µM, the GI50 (SN12C renal) was 16.6 µM and the TGI (SN12C renal) was 34.1 µM. The GI50 (SNB-19 CNS) was 38.4 µM, the TGI (SNB-19 CNS) was > 100 µM and the GI50 (SNB-75 CNS) was 16.6 µM. It also gave a TGI (SNB-75 CNS) of 38.4 µM, a GI50 (SR leukemia) of 2.6 µM and a TGI (SR leukemia) of 7.33 µM. The GI50 (SW-620 colon) was 1.79 µM, the TGI (SW-620 colon) was 3.62 µM and the GI50 (T-47D breast) was 3.73 µM. It also gave a TGI (T-47D breast) of 14.7 µM, a GI50 (TK-10 renal) of 6.4 µM and a TGI (TK-10 renal) of 19.1 µM. The GI50 (U251 CNS) was 17.8 µM, the TGI (U251 CNS) was 33.8 µM and the GI50 (UACC-257 melanoma) was 10.5 µM. It also gave a TGI (UACC-257 melanoma) of 22.7 µM, a GI50 (UACC-62 melanoma) of 16.1 µM and a TGI (UACC-62 melanoma) of 29.8 µM. The GI50 (UO-31 renal) was 12.4 µM and the TGI (UO-31 renal) was 25.1 µM.

Reference: PubChem BioAssay (NCI)
